pEC50: −log10 of the molar value. Where a name gives a salt, the structure may show the parent alone.

The pEC50 is the negative decadic logarithm of the EC50, by convention in mol/L.

In this assay the target is T1, PPARδ (Homo sapiens, UniProt Q03181).
T1 construct: fused to amino acids 147-441 of PPARδ downstream of CMV promoter; expressed in transfected cells; host or cells: HEK293 cells, transiently transfected with pFACMV-PPARδ using Fugene
T1 sequence (Q03181 147-441): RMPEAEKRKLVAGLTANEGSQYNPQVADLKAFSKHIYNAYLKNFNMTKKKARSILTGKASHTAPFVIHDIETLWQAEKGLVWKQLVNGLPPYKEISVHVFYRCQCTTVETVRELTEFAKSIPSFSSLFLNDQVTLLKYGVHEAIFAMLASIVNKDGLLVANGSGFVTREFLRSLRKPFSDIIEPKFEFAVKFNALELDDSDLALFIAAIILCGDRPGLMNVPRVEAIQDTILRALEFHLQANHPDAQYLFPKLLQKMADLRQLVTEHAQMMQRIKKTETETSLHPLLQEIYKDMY
Description: Transactivation assay (PPARδ GAL4 assay) in transiently transfected HEK293 cells. Type of assay: cell-based. Particulars: luciferase reporter, Table 2. In short, it runs like this: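 HEK293 cells transiently co-transfected with GAL4 DBD (aa 1-147)–PPARδ (aa 147-441) fusion and 5×GAL4-luciferase reporter, then exposed 24 h to compound (final 0-30 μM) in OptiMEM at 37° C. Luminescence read; activity as percent of GW501516 control, EC50 from sigmoidal dose-response fit.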
In general terms: A reporter such as luciferase makes a cellular process visible.

Consider `CCc1cc(C(=O)c2ccc(OC(F)(F)F)cc2)c(NC(=O)CNC2(C(=O)O)CCC2)s1` [Example 164, 1-({[5-Ethyl-3-(4-trifluoromethoxy-benzoyl)-thiophen-2-ylcarbamoyl]-methyl}-amino)-cyclobutanecarboxylic acid], for which the pEC50 was > 7.00.
The value for `CCc1cc(C(=O)c2ccc(OC(F)(F)F)cc2)c(NC(=O)CN2CCCCC2C(=O)O)s1` (centres unmarked) [Example 165, 1-{[5-Ethyl-3-(4-trifluoromethoxy-benzoyl)-thiophen-2-ylcarbamoyl]-methyl}-piperidine-2-carboxylic acid] was 6.00 to 7.00.
Regarding `CCc1cc(C(=O)c2ccc(OC(F)(F)F)cc2)c(NC(=O)CNC2(C(=O)O)CCCCC2)s1` [Example 166, 1-({[5-Ethyl-3-(4-trifluoromethoxy-benzoyl)-thiophen-2-ylcarbamoyl]-methyl}-amino)-cyclohexanecarboxylic acid], the pEC50 is 6.00 to 7.00.
The value for `CCc1cc(C(=O)c2ccc(OC(F)(F)F)cc2)c(NC(=O)CN2CCC[C@H]2C(=O)O)s1` [Example 167, (S)-1-{[5-Ethyl-3-(4-trifluoromethoxy-benzoyl)-thiophen-2-ylcarbamoyl]-methyl}-pyrrolidine-2-carboxylic acid] was 4.52 to 6.00; that for `CCc1cc(C(=O)c2ccc(OC(F)(F)F)cc2)c(NC(=O)CN2CCC[C@@H]2C(=O)O)s1` [Example 168, (R)-1-{[5-Ethyl-3-(4-trifluoromethoxy-benzoyl)-thiophen-2-ylcarbamoyl]-methyl}-pyrrolidine-2-carboxylic acid] was 6.00 to 7.00; that for `CCc1cc(C(=O)c2ccc(OC(F)(F)F)c(Cl)c2)c(NC(=O)CN[C@H](C(=O)O)C(C)C)s1` [Example 169, (S)-2-({[3-(3-Chloro-4-trifluoromethoxy-benzoyl)-5-ethyl-thiophen-2-ylcarbamoyl]-methyl}-amino)-3-methyl-butyric acid] was 6.00 to 7.00.
`CCc1cc(C(=O)c2ccc(Cl)c(Cl)c2)c(NC(=O)CN[C@H](C(=O)O)C(C)C)s1` [Example 170, (S)-2-({[3-(3,4-Dichloro-benzoyl)-5-ethyl-thiophen-2-ylcarbamoyl]-methyl}-amino)-3—methyl-butyric acid]: the negative-log EC50 (pEC50) was 6.00 to 7.00.
To `CCc1cc(C(=O)c2ccc(OC(F)(F)F)c(Cl)c2)c(NC(=O)CNC(C)(C)C(=O)O)s1` [Example 171, 2-({[3-(3-Chloro-4-trifluoromethoxy-benzoyl)-5-ethyl-thiophen-2-ylcarbamoyl]-methyl}-amino)-2-methyl-propionic acid] belongs > 7.00; to `CCc1cc(C(=O)c2ccc(OC(F)(F)F)cc2)c(NC(=O)CN2CCC[C@]2(C)C(=O)O)s1` [Example 172, (R)-1-{[5-Ethyl-3-(4-trifluoromethoxy-benzoyl)-thiophen-2-ylcarbamoyl]-methyl}-2-methyl-pyrrolidine-2-carboxylic acid], 6.00 to 7.00; to `CCc1cc(C(=O)c2ccc(OC(F)(F)F)cc2)c(NC(=O)CN2CCCC2(C)C(=O)O)s1` (centres unmarked) [Example 173, 1-{[5-Ethyl-3-(4-trifluoromethoxy-benzoyl)-thiophen-2-ylcarbamoyl]-methyl}-2-methyl-pyrrolidine-2-carboxylic acid], 6.00 to 7.00.
To `CCc1cc(C(=O)c2ccc(OC(F)(F)F)cc2)c(NC(=O)CC(C)CC(=O)O)s1` (centres unmarked) [Example 174, 4-[5-Ethyl-3-(4-trifluoromethoxy-benzoyl)-thiophen-2-ylcarbamoyl]-3-methyl-butyric acid] belongs > 7.00; to `CCc1cc(C(=O)c2ccc(OCC(F)(F)F)cc2)c(NC(=O)CSCC(=O)O)s1` [Example 175, ({5-Ethyl-3-[4-(2,2,2-trifluoro-ethoxy)-benzoyl]-thiophen-2-ylcarbamoyl}-methylsulfanyl)-acetic acid], 6.00 to 7.00; to `CCc1cc(C(=O)c2ccc(OC(F)(F)F)cc2)c(NC(=O)C2CCCN(CC(=O)O)C2)s1` (centres unmarked) [Example 176, {3-[5-Ethyl-3-(4-trifluoromethoxy-benzoyl)-thiophen-2-ylcarbamoyl]-piperidin-1-yl}-acetic acid], 4.52 to 6.00.
To `CCc1cc(C(=O)c2ccc(OC(F)(F)F)cc2)c(NC(=O)C2CCN(CC(=O)O)CC2)s1` [Example 177, {4-[5-Ethyl-3-(4-trifluoromethoxy-benzoyl)-thiophen-2-ylcarbamoyl]-piperidin-1-yl}-acetic acid] belongs 4.52 to 6.00.
Regarding `CCc1cc(C(=O)c2ccc(OC(F)(F)F)cc2)c(NC(=O)CN2[C@@H](C(=O)O)CC[C@@H]2c2ccc(F)cc2)s1` [Example 181, (2R,5R)-1-{[5-Ethyl-3-(4-trifluoromethoxy-benzoyl)-thiophen-2-ylcarbamoyl]-methyl}-5-(4-fluoro-phenyl)-pyrrolidine-2-carboxylic acid], the pEC50 was > 7.00.
For the compound `CCc1cc(C(=O)c2ccc(OC(F)(F)F)cc2)c(NC(=O)CN2[C@@H](C(=O)O)CC[C@@H]2C)s1` [Example 182, (2R,5S)-1-{[5-Ethyl-3-(4-trifluoromethoxy-benzoyl)-thiophen-2-ylcarbamoyl]-methyl}-5-methyl-pyrrolidine-2-carboxylic acid], the pEC50 was > 7.00.
The value for `CCc1cc(C(=O)c2ccc(OC(F)(F)F)cc2)c(NC(=O)CN2[C@@H](CC)CC[C@@H]2C(=O)O)s1` [Example 183, (2R,5S)-5-Ethyl-1-{[5-ethyl-3-(4-trifluoromethoxy-benzoyl)-thiophen-2-ylcarbamoyl]-methyl}-pyrrolidine-2-carboxylic acid] was > 7.00; that for `CCc1cc(C(=O)c2ccc(OC(F)(F)F)cc2)c(NC(=O)CN2[C@@H](C(=O)O)CC[C@@H]2c2ccccc2)s1` [Example 184, (2R,5R)-1-{[5-Ethyl-3-(4-trifluoromethoxy-benzoyl)-thiophen-2-ylcarbamoyl]-methyl}-5-phenyl-pyrrolidine-2-carboxylic acid] was > 7.00.
To `CCc1cc(C(=O)c2ccc(OC(F)(F)F)cc2)c(NC(=O)CN2[C@@H](C(=O)O)CC[C@@H]2C(C)C)s1` [Example 185, (2R,5R)-1-{[5-Ethyl-3-(4-trifluoromethoxy-benzoyl)-thiophen-2-ylcarbamoyl]-methyl}-5-isopropyl-pyrrolidine-2-carboxylic acid] belongs > 7.00.
The value for `CCc1cc(C(=O)c2ccc(OC(F)(F)F)cc2)c(NC(=O)C(C)N2[C@@H](C(=O)O)CC[C@@H]2C)s1` (stereo partly drawn) [Example 186, (2R,5S)-1-{1-[5-Ethyl-3-(4-trifluoromethoxy-benzoyl)-thiophen-2-ylcarbamoyl]-ethyl}-5-methyl-pyrrolidine-2-carboxylic acid] was > 7.00; that for `CCc1cc(C(=O)c2ccc(Cl)cc2)c(NC(=O)CN2[C@@H](C(=O)O)CC[C@@H]2c2ccccc2)s1` [Example 187, (2R,5R)-1-{[3-(4-Chloro-benzoyl)-5-ethyl-thiophen-2-ylcarbamoyl]-methyl}-5-phenyl-pyrrolidine-2-carboxylic acid hydrochloride] was 6.00 to 7.00.
`O=C(CN1[C@@H](C(=O)O)CC[C@@H]1c1ccccc1)Nc1sc(Cl)cc1C(=O)c1ccc(OC(F)(F)F)cc1` [Example 188, (2R,5R)-1-{[5-Chloro-3-(4-trifluoromethoxy-benzoyl)-thiophen-2-ylcarbamoyl]-methyl}-5-phenyl-pyrrolidine-2-carboxylic acid hydrochloride]: the pEC50 is > 7.00.
The value for `CCc1cc(C(=O)c2ccc(OC(F)(F)F)cc2)c(NC(=O)CN2CCCC2C(=O)O)s1` (centres unmarked) [Example 189, 1-{[5-Ethyl-3-(4-trifluoromethoxy-benzoyl)-thiophen-2-ylcarbamoyl]-methyl}-pyrrolidine-2-carboxylic acid] was > 7.00.
Take `CCc1cc(C(=O)c2ccc(OC(F)(F)F)cc2)c(NC(=O)CNC2(C(=O)O)CCCC2)s1` [Example 190, 1-({[5-Ethyl-3-(4-trifluoromethoxy-benzoyl)-thiophen-2-ylcarbamoyl]-methyl}-amino)-cyclopentanecarboxylic acid]: the pEC50 was > 7.00.
To `CCc1cc(C(=O)c2ccc(OC(F)(F)F)cc2)c(NC(=O)CN[C@@H](CC)C(=O)O)s1` [Example 191, (S)-2-({[5-Ethyl-3-(4-trifluoromethoxy-benzoyl)-thiophen-2-ylcarbamoyl]-methyl}-amino)-butyric acid] belongs 6.00 to 7.00.
To `CCc1cc(C(=O)c2ccc(OC(F)(F)F)cc2)c(NC(=O)CN[C@@](C)(CC)C(=O)O)s1` [Example 192, (S)-2-({[5-Ethyl-3-(4-trifluoromethoxy-benzoyl)-thiophen-2-ylcarbamoyl]-methyl}-amino)-2-methyl-butyric acid] belongs 6.00 to 7.00; to `CCc1cc(C(=O)c2ccc(OC(F)(F)F)cc2)c(NC(=O)CCN2CCC[C@@H]2C(=O)O)s1` [Example 193, (R)-1-{2-[5-Ethyl-3-(4-trifluoromethoxy-benzoyl)-thiophen-2-ylcarbamoyl]-ethyl}-pyrrolidine-2-carboxylic acid], 6.00 to 7.00; to `CCc1cc(C(=O)c2ccc(OC(F)(F)F)cc2)c(NC(=O)CCSCC(=O)O)s1` [Example 194, {2-[5-Ethyl-3-(4-trifluoromethoxy-benzoyl)-thiophen-2-ylcarbamoyl]-ethylsulfanyl}-acetic acid], > 7.00.
With `CCc1cc(C(=O)c2ccc(OC(F)(F)F)cc2)c(NC(=O)[C@H](C)SCC(=O)O)s1` [Example 195, {(S)-1-[5-Ethyl-3-(4-trifluoromethoxy-benzoyl)-thiophen-2-ylcarbamoyl]-ethylsulfanyl}-acetic acid], the pEC50 is > 7.00.

The record behind these values is US20100063065A1 (Inpharmatica Limited, priority 2005, published 2010).
